Reference: PubChem BioAssay (NCI)
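Exposure lasted 48 hours, with cells grown in 96-well plates and compounds tested at five concentrations. At the GI50, growth is halved. TGI: total growth inhibition.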

Assays:
Assay in all cases: inhibition of tumour cell growth, NCI panel, 48 h
MOLT-4 leukemia = system: MOLT-4 leukemia
HOP-62 NSCLC = system: HOP-62 NSCLC
SNB-19 CNS = system: SNB-19 CNS
A498 renal = system: A498 renal
IGROV1 ovarian = system: IGROV1 ovarian
NCI/ADR-RES ovarian = system: NCI/ADR-RES ovarian
HS 578T breast = system: HS 578T breast
OVCAR-5 ovarian = system: OVCAR-5 ovarian
U251 CNS = system: U251 CNS
PC-3 prostate = system: PC-3 prostate
NCI-H460 lung = system: NCI-H460 lung
SK-MEL-2 melanoma = system: SK-MEL-2 melanoma
KM12 colon = system: KM12 colon
SF-539 CNS = system: SF-539 CNS
ACHN renal = system: ACHN renal
SR leukemia = system: SR leukemia
BT-549 breast = system: BT-549 breast
NCI-H226 lung = system: NCI-H226 lung
HCC-2998 colon = system: HCC-2998 colon
HOP-92 NSCLC = system: HOP-92 NSCLC
MDA-MB-231 breast = system: MDA-MB-231 breast
SF-295 CNS = system: SF-295 CNS
HCT-15 colon = system: HCT-15 colon
786-0 renal = system: 786-0 renal
OVCAR-4 ovarian = system: OVCAR-4 ovarian
CAKI-1 renal = system: CAKI-1 renal
SK-OV-3 ovarian = system: SK-OV-3 ovarian
MDA-MB-435 = system: MDA-MB-435
COLO 205 colon = system: COLO 205 colon
CCRF-CEM leukemia = system: CCRF-CEM leukemia
UO-31 renal = system: UO-31 renal
RXF 393 renal = system: RXF 393 renal
A549 NSCLC = system: A549 NSCLC
SK-MEL-5 melanoma = system: SK-MEL-5 melanoma
OVCAR-8 ovarian = system: OVCAR-8 ovarian
MDA-N = system: MDA-N
RPMI-8226 leukemia = system: RPMI-8226 leukemia
T-47D breast = system: T-47D breast
NCI-H522 lung = system: NCI-H522 lung
UACC-257 melanoma = system: UACC-257 melanoma
UACC-62 melanoma = system: UACC-62 melanoma
SF-268 CNS = system: SF-268 CNS
MCF7 breast = system: MCF7 breast
HCT-116 colon = system: HCT-116 colon
SN12C renal = system: SN12C renal
LOX IMVI melanoma = system: LOX IMVI melanoma
MALME-3M melanoma = system: MALME-3M melanoma
DU-145 prostate = system: DU-145 prostate
SK-MEL-28 melanoma = system: SK-MEL-28 melanoma
M14 melanoma = system: M14 melanoma
OVCAR-3 ovarian = system: OVCAR-3 ovarian
EKVX NSCLC = system: EKVX NSCLC
TK-10 renal = system: TK-10 renal
SNB-75 CNS = system: SNB-75 CNS
SW-620 colon = system: SW-620 colon
HL-60(TB) leukemia = system: HL-60(TB) leukemia
NCI-H23 lung = system: NCI-H23 lung
HT29 colon = system: HT29 colon

CC[C@@]1(O)C(=O)OCc2c1cc1n(c2=O)Cc2c-1nc1cc3c(cc1c2CCl)OCO3
GI50 (MOLT-4 leukemia): < 10 nM
TGI (MOLT-4 leukemia): < 38 nM
GI50 (HOP-62 NSCLC): < 10 nM
TGI (HOP-62 NSCLC): < 47.9 nM
GI50 (SNB-19 CNS): < 18 nM
TGI (SNB-19 CNS): > 100000 nM
GI50 (A498 renal): < 15.1 nM
TGI (A498 renal): 753 nM
GI50 (IGROV1 ovarian): 139 nM
TGI (IGROV1 ovarian): 5750 nM
GI50 (NCI/ADR-RES ovarian): < 10 nM
TGI (NCI/ADR-RES ovarian): 133 nM
GI50 (HS 578T breast): 1290 nM
TGI (HS 578T breast): > 54100 nM
GI50 (OVCAR-5 ovarian): 59.3 nM
TGI (OVCAR-5 ovarian): 2120 nM
GI50 (U251 CNS): < 10 nM
TGI (U251 CNS): 1900 nM
GI50 (PC-3 prostate): 39.2 nM
TGI (PC-3 prostate): > 36400 nM
GI50 (NCI-H460 lung): < 10 nM
TGI (NCI-H460 lung): < 31.8 nM
GI50 (SK-MEL-2 melanoma): 206 nM
TGI (SK-MEL-2 melanoma): 1220 nM
GI50 (KM12 colon): 181 nM
TGI (KM12 colon): 1880 nM
GI50 (SF-539 CNS): < 10 nM
TGI (SF-539 CNS): < 13.5 nM
GI50 (ACHN renal): < 10 nM
TGI (ACHN renal): 32.2 nM
GI50 (SR leukemia): < 10 nM
GI50 (BT-549 breast): 106 nM
TGI (BT-549 breast): 3990 nM
GI50 (NCI-H226 lung): < 10 nM
TGI (NCI-H226 lung): 1300 nM
GI50 (HCC-2998 colon): 365 nM
TGI (HCC-2998 colon): 8580 nM
GI50 (HOP-92 NSCLC): < 10 nM
TGI (HOP-92 NSCLC): 466 nM
GI50 (MDA-MB-231 breast): 1380 nM
TGI (MDA-MB-231 breast): 20700 nM
GI50 (SF-295 CNS): < 10 nM
TGI (SF-295 CNS): 25.2 nM
GI50 (HCT-15 colon): 192 nM
TGI (HCT-15 colon): 12300 nM
GI50 (786-0 renal): < 10 nM
TGI (786-0 renal): 238 nM
GI50 (OVCAR-4 ovarian): 693 nM
TGI (OVCAR-4 ovarian): 11600 nM
GI50 (CAKI-1 renal): < 10 nM
TGI (CAKI-1 renal): 477 nM
GI50 (SK-OV-3 ovarian): < 10 nM
TGI (SK-OV-3 ovarian): 1070 nM
GI50 (MDA-MB-435): 59.2 nM
TGI (MDA-MB-435): 2240 nM
GI50 (COLO 205 colon): 1150 nM
TGI (COLO 205 colon): 3400 nM
GI50 (CCRF-CEM leukemia): < 10 nM
GI50 (UO-31 renal): < 10 nM
TGI (UO-31 renal): 756 nM
GI50 (RXF 393 renal): < 13.8 nM
TGI (RXF 393 renal): 1210 nM
GI50 (A549 NSCLC): < 10 nM
TGI (A549 NSCLC): 3250 nM
GI50 (SK-MEL-5 melanoma): < 10 nM
TGI (SK-MEL-5 melanoma): 1130 nM
GI50 (OVCAR-8 ovarian): < 10 nM
TGI (OVCAR-8 ovarian): 602 nM
GI50 (MDA-N): < 10 nM
TGI (MDA-N): 1630 nM
GI50 (RPMI-8226 leukemia): < 10 nM
TGI (RPMI-8226 leukemia): 309 nM
GI50 (T-47D breast): < 10 nM
TGI (T-47D breast): > 71900 nM
GI50 (NCI-H522 lung): < 10 nM
TGI (NCI-H522 lung): 1360 nM
GI50 (UACC-257 melanoma): < 44.6 nM
TGI (UACC-257 melanoma): 1590 nM
GI50 (UACC-62 melanoma): < 10 nM
TGI (UACC-62 melanoma): 205 nM
GI50 (SF-268 CNS): < 10 nM
TGI (SF-268 CNS): 4620 nM
GI50 (MCF7 breast): < 10 nM
TGI (MCF7 breast): > 100000 nM
GI50 (HCT-116 colon): < 10 nM
TGI (HCT-116 colon): 294 nM
GI50 (SN12C renal): < 10 nM
TGI (SN12C renal): 367 nM
GI50 (LOX IMVI melanoma): < 10 nM
TGI (LOX IMVI melanoma): 426 nM
GI50 (MALME-3M melanoma): 62.9 nM
TGI (MALME-3M melanoma): 2000 nM
GI50 (DU-145 prostate): < 10 nM
GI50 (SK-MEL-28 melanoma): 2330 nM
TGI (SK-MEL-28 melanoma): 18900 nM
GI50 (M14 melanoma): 32 nM
TGI (M14 melanoma): 403 nM
GI50 (OVCAR-3 ovarian): 333 nM
TGI (OVCAR-3 ovarian): 3070 nM
GI50 (EKVX NSCLC): 994 nM
TGI (EKVX NSCLC): > 44600 nM
GI50 (TK-10 renal): 292 nM
TGI (TK-10 renal): 11100 nM
GI50 (SNB-75 CNS): < 10 nM
TGI (SNB-75 CNS): 2080 nM
GI50 (SW-620 colon): < 13.6 nM
GI50 (HL-60(TB) leukemia): < 10 nM
GI50 (NCI-H23 lung): < 10 nM
TGI (NCI-H23 lung): < 15.3 nM
GI50 (HT29 colon): 27.1 nM
TGI (HT29 colon): > 22300 nM
